Laboratory results: patent US20130101565A1, “USE OF CARBONIC ANHYDRASE II FOR PRODUCING A DRUG” (CONSEJO SUPERIOR DE INVESTIGACIONES CIENTIFICAS (CSIC), priority 2009, published 2013)

Legend:
PCNA and Stathmin genes = assay: In vivo renal ischemia-reperfusion: real-time RT-PCR of regeneration markers PCNA and Stathmin in kidney; parameters: species or system Swiss strain mice; details: FIG. 1
Procedure: (§1) Swiss strain mice were used, males with an approximate weight of 25-30 g (Charles River, France). All the procedures were performed under the supervision of the ethics committee of the Institute for Biomedical Research of Barcelona (CSIC) and followed European Union guidelines. The environmental conditions were kept constant, the temperature was 21-22° C., the relative humidity was 70% and the alternative cycles of light/darkness were 12 h. The animals were fed a standard diet of AO4 fodder (Panlab, Barcelona) and water from the Barcelona supply network ad libitum.
The animals were anaesthesised with Isoflurane, placed in the supine position, and their body temperature was maintained at between 36° C. and 37° C. After performing a median laparotomy to access the kidney, carefully putting aside the intestinal packet, bilateral ischemia was induced by clamping both renal arterio-venous pedicles with a non-traumatic microvascular clamp for 45 minutes. Subsequently, the reperfusion period was started, with removal of the clamp, and it was visually verified by observing the return of the blood flow to the kidney. Subsequently, the animal was sutured and administered subcutaneous Buprex (4.16 μg/100 g of weight).
Animals subjected to a sham operation were used as controls. During the entire operation process, the animals were well hydrated and the body temperature was maintained at about 37° C. During the reperfusion time, the animals were stabulated under the control of a veterinary. […]
The RNA of the kidney samples was extracted by means of the TRIzol reagent in accordance with the manufacturer's instructions (Invitrogen, Barcelona). […] The RNA concentrations were calculated by determining the absorbance at 260 nm. The integrity of the RNA thus obtained was examined by analysing the 18s and 28s ribosomal RNA bands detected and analysed in the Bioanalyzer of the Clinical Hospital of Barcelona (Agilent).
The expression of the analysed genes was measured by means of real-time quantitative RT-PCR normalised with the glyceraldehyde 3-phosphate dehydrogenase (GAPDH) housekeeping gene. […]

Erythropoietin (EPO) = assay: In vivo renal ischemia-reperfusion: Western Blot for EPO in renal tissue; parameters: species or system Swiss strain mice; details: vs I/R, FIG. 3
Procedure: as §1
(§2) The animals were anaesthesised with Isoflurane, placed in the supine position, and their body temperature was maintained at between 36° C. and 37° C. […]
The renal tissue samples were homogenised in lysis buffer (70 mM sucrose, 2 mM Hepes KOH, 220 mM Mannitol, 0.1 mM EGTA, 1 mM PMSF, 0.1 mM BSA, antiproteases cocktail (SIGMA)); subsequently, the protein concentration thereof was determined. The proteins were determined by means of the Bradford colorimetric method with a commercial reagent from BioRad.
50 μg of protein for each of the groups to be analysed were placed in each well of the 12% acrylamide gel. […]

[1] = test system: Proximal tubular epithelial cells from rats (NRK52e); assay: In vitro cisplatin-induced damage of renal tubular cells: apoptosis evaluated by activity of caspase 3; assay type: cell-based; details: cisplatin+CAII group: NRK52e, cisplatin 200 μM 6 h, then 10 μg/ml CAII 16 h; vs cisplatin; FIG. 5
Procedure: (§3) Proximal tubular epithelial cells from rats (NRK52e) were kept in culture bottles (75 cm^2), with a culture medium (DMEM) whereto 17.5 mM of glucose and 2.5 mM of glutamine were added; this medium was also supplemented with antibiotics (100 units/ml of penicillin and 100 μg/ml of streptomycin) and 10% foetal calf serum (FCS). The cells were incubated in a humidified atmosphere with 5% CO2 at 37° C.
(§4) The control cells (control) were collected when they reached confluence without any treatment.
Treatment with cisplatin (Sigma) was performed by dissolving the drug in the minimum volume of DMSO (40 μl) and diluting it in PBS at a concentration of 200 μM. […]
(§5) The activity of caspase-3 was determined by measuring the proteolysis of the specific substrate (N-acetyl-Asp-Glu-Val-Asp-7-amino-4-methyl coumarin (DEVD-AMC; Biomol, Plymouth Meeting, Pa.). The cell culture samples were homogenised and sonicated in the assay buffer (50 mM HEPES, 10% sucrose, 0.1% CHAPS, 5 mM GSSG, 5 mM DTT). The supernatants of the sample were incubated in this buffer, whereto DEVD-AMC at a concentration of 50 μM was added. The AMC released was quantified for 1 hour and a half at 37° C. by means of fluorospectrophotometry, using 380 nm of excitation and measuring the emission at 450 nm.

caspase 3 = assay: In vivo renal ischemia-reperfusion: apoptosis evaluated by activity of caspase 3 in renal tissue; parameters: species or system Swiss strain mice; details: FIG. 2
Procedure: as §1, §2
as §5, with “The renal tissue” for “The cell culture”, “the samples” for “the sample”, “by” for “by means of”

[2] = test system: Proximal tubular epithelial cells from rats (NRK52e); assay: In vitro cisplatin-induced damage of renal tubular cells: real-time RT-PCR of PCNA and Ki67; assay type: cell-based; details: cis+CAII group: NRK52e, cisplatin 200 μM 6 h, then 10 μg/ml CAII 16 h; vs cis; FIG. 4
Procedure: as §3, §4
Treatment with cisplatin (Sigma) was performed by dissolving the drug in the minimum volume of DMSO (40 μl) and diluting it in PBS at a concentration of 200 μM. After 6 hours, the medium was removed and a new medium was added, without the drug for the CIS group and with 10 μg/ml of CAII for the CIS+CAII group. The samples were collected 16 hours later. […]
The RNA of the samples taken from the cell culture was extracted using the TRIzol reagent in accordance with the manufacturer's instructions (Invitrogen, Barcelona). […] The RNA concentrations were calculated by determining the absorbance at 260 nm. The integrity of the RNA thus obtained was examined by analysing the 18s and 28s ribosomal RNA bands detected and analysed in the Bioanalyzer of the Clinical Hospital of Barcelona (Agilent).
The expression of the analysed genes was measured by means of real-time quantitative RT-PCR normalised with GAPDH. […]

[3] = I/R+AZT group: Azetazolamide 30 mg/kg intraperitoneal one day prior to I/R

Compound: CC(=O)Nc1nnc(S(N)(=O)=O)s1 [azetazolamide, Azetazolamide, reference compound]
- regenerative markers (PCNA and Stathmin mRNA) (PCNA and Stathmin genes; [3]): decrease
- amount of EPO in kidney (Western Blot) (Erythropoietin (EPO); [3]): reduced the amount of EPO

Compound: carbonic anhydrase II [CAII]
- regenerative response (expression of PCNA and Stathmin mRNA) (PCNA and Stathmin genes; I/R+CAII group: 45 min ischemia, 24 h reperfusion, CAII 5 mg/kg into inferior vena cava at beginning of reperfusion, vs I/R): marked increase
- regeneration (PCNA and Stathmin mRNA) in undamaged tissue (PCNA and Stathmin genes; control+CAII group: no I/R, CAII 5 mg/kg intravenous 24 h prior to sample collection): did not induce regeneration
- apoptosis (activity of caspase 3) [1]: capable of reverting apoptosis
- amount of EPO in kidney (Western Blot) (Erythropoietin (EPO); I/R+CAII group: CAII 5 mg/kg at beginning of reperfusion): marked increase
- incidence of apoptosis (activity of caspase 3) (caspase 3; I/R+CAII group: CAII 5 mg/kg at beginning of reperfusion, vs I/R): drastically reduced
- apoptosis naturally present in healthy tissue (activity of caspase 3) (caspase 3; control+CAII group: no I/R, CAII 5 mg/kg intravenous): does not affect
- regeneration (expression of PCNA and Ki67 mRNA) [2]: significantly increased regeneration
